Measured values from patent US20170119034A1, “COMPOSITIONS AND METHODS FOR MODIFYING PERCEPTION OF SWEET TASTE” (University of Florida Research Foundation, Inc., priority 2012, published 2017).

Tests used:
[1] = system: tomato flavor intensity (consumer panel); assay: Tomato consumer taste panel: overall tomato flavor intensity (gLMS) versus fruit chemical content; assay type: in vivo, human; conditions: for association with flavor intensity: univariate models; for association with tomato flavor intensity: volatiles with high odor unit values
Description: (§1) Sensory analysis. Fully ripe fruit were harvested, and used for taste panels. A random subset of fruit was used for biochemical analysis. Three biological replicates, each consisting of 2-20 fruit (depending on fruit size), were assayed for each variety. […] Panelists were between the ages of 18 and 78 with a median age of 22. […] An average of 85 (range of 66-95) of these panelists evaluated between 4-6 varieties in a session. All panelists went through a training session to familiarize them with the scaling and procedures. Tomatoes were sliced into wedges (or in halves for grape/cherry types) and each panelist was given two pieces for evaluation. Panelists took a bite of each sample, chewed and swallowed it, and rated overall liking and liking for texture. They then rated the perceived intensities of sweetness, sourness, saltiness, umami sensation, bitterness and overall tomato flavor. They were free to take as many bites as necessary to complete the assessments. They were instructed to take a bite of an unsalted cracker and a sip of water between samples. Samples were presented to the panelists in a randomized order. Hedonic ratings used the hedonic gLMS. This scale assesses the liking for tomatoes in the context of all pleasure/displeasure experiences: 0=neutral, −100=strongest disliking of any kind experienced, and +100=strongest liking of any kind experienced. Sensory intensity ratings used the gLMS (7, 8, 19).This scale assesses taste and flavor sensations in the context of all sensory experience (7): 0=no sensation, 100=strongest sensation of any kind experienced. Both scales were devised to provide valid comparisons across subjects.
(§2) Statistical analysis. The 68 chemical compounds measured in this experiment were divided into six groups based upon biochemical properties: sugars, branched chain amino acids, lipids, carotenoids, phenolics, and acids. A small number of compounds for which biosynthetic pathways are not established were assigned to one of the six classes based upon their correlations with other classified compounds. All pairwise correlations among the set of 68 compounds were calculated. Correlation coefficients were sorted using Modulated Modularity Clustering (MMC) (9) as a visual aid for identifying compounds that are closely related in this sample (FIG. 1; Table 4). Biochemical groups were examined for compounds within the group that were highly correlated and compounds that were upstream in the relevant metabolic pathways were preferentially selected.
(§3) All analyses were performed in SAS v 9.2.

[2] = system: perceived sweetness of tomato fruit (consumer panel); conditions: analysis of a volatile subset (Tieman 2012); cited from earlier work
[3] = system: perceived sweetness of tomato fruit (consumer panel); assay: Tomato consumer taste panel: perceived sweetness (gLMS) regressed on fruit chemical content; assay type: in vivo, human; conditions: for association with sweetness: univariate models; for t: multiple regression of volatile against perceived sweetness of tomato, independent of the measures of sugar
Description: as §1, §2, §3
In conducting the multiple regression analysis on the tomato data set, the independent variables were the sugar content (glucose+fructose), and the flavor (indicated by the retronasal perception of volatiles), while the dependent variable was the perceived sweetness.

[4] = system: texture liking of strawberry fruit (consumer panel); assay: Strawberry consumer panel: bivariate fit to texture liking; assay type: in vivo, human; conditions: bivariate linear fit; X = content of the substance in strawberry fruit, Y = Texture liking
Description: (§4) All consumer panels were approved by the University of Florida Institutional Review Board. […] Ages of panelist ranged from 18 to 71, with a median age of 24. Panelists self-classified themselves as 98 White or Caucasian, 11 Black or African-American, 1 Native American, Alaska Native or Aleutian, 41 Asian/Pacific Islander, and 15 Other. […] Fresh, fully-ripe strawberry fruit was removed from overnight 4° C. dark storage and allowed to warm to room temperature prior to sensory analysis. Each panelist was given one to two whole strawberries for evaluation, depending on cultivar availability. Panelist took a bite of each sample, chewed, and swallowed it. Ratings for overall liking and liking for texture were scaled on hedonic general labeled magnitude scale (gLMS) in the context of all pleasure/displeasure experiences. […] Scales were employed to mediate valid comparisons across subjects and sessions.
(§5) Bivariate analysis among individual measurements of samples allowed for linear fit, which includes summary of fit, analysis of variance, t-test, and correlation analysis for density ellipse. Two-way Ward hierarchical cluster analysis of all metabolite concentrations and strawberry samples accomplished in JMP.

[5] = system: perceived sweetness intensity of strawberry fruit (consumer panel); assay: Strawberry consumer panel: multiple regression of volatile concentration against perceived sweetness intensity independent of glucose, fructose or sucrose; assay type: in vivo, human; conditions: for FRUCTOSE t RATIO: volatile concentration regressed against perceived sweetness intensity independent of fructose; for GLUCOSE t RATIO: volatile concentration regressed against perceived sweetness intensity independent of glucose; for SUCROSE t RATIO: volatile concentration regressed against perceived sweetness intensity independent of sucrose
Description: Step-wise multiple regressions of all volatile compounds against perceived intensity of sweetness is performed independent of either glucose, fructose, or sucrose concentration, separately (Table 6).
as §4
Multiple regressions were performed with the “enter” method in SPSS for identification of sweetness enhancing volatiles. Individual volatile compound concentrations were regressed using the “enter” method in SPSS Statistics (IBM Corp, Armonk, N.Y., USA).

[6] = system: strawberry flavor intensity (consumer panel); assay: Strawberry consumer panel: bivariate fit to strawberry flavor intensity; assay type: in vivo, human; conditions: for Parameter Estimates: Estimate: bivariate linear fit, X = content of the substance in strawberry fruit, Y = Flavor Intensity (FI)
Description: as §4, §5

Structure (SMILES) | association with flavor intensity [1] | association with sweetness ([3]; tomato) | Parameter Estimates-fit to Texture Liking: Estimate [4] | FRUCTOSE t RATIO [5] | GLUCOSE t RATIO [5] | SUCROSE t RATIO [5] | Parameter Estimates: Estimate [6] | also measured
C=CC(=O)CCCCC [1-octen-3-one] | associated with flavor intensity in univariate models | – | – | – | – | – | – | association with flavor intensity after accounting for fructose [1]: independently significant after accounting for fructose
CC(C)CCO [3-methyl-1-butanol] | associated with flavor intensity in univariate models | showed evidence for association with sweetness in univariate models | – | – | – | – | – | enhancing sweetness intensity independent of fructose [2]: enhancing sweetness intensity independent of fructose; association with sweetness after accounting for fructose ([3]; tomato, after accounting for fructose): independent predictors of sweetness after accounting for fructose; association with flavor intensity after accounting for fructose ([1]; listed as 3-methyl-1-butenol): independently significant after accounting for fructose
CC1C=CC2C(C1)C2(C)C (stereo not shown) [4-carene] | – | showed evidence for association with sweetness in univariate models | – | – | – | – | – | –
C=CC(C)(O)CCC=C(C)C (stereo not shown) [78-70-6] | – | – | 0.007729 | 0.872 | 0.7 | −0.1 | 0.009457 | relationship to strawberry flavor intensity / sensory perception ([6]; strawberry, in words): significant positive correlation with flavor intensity
CCCCCC(=O)OC [106-70-7] | – | – | −0.002647 | −0.321 | −0.531 | 0.802 | 0.002291 | –
CCCCCC(C)=O [110-43-0] | – | – | 0.07262 | 1.054 | 0.657 | 1.899 | 0.06351 | –
CCCCCCO [111-27-3] | – | – | −0.01204 | −1.253 | −1.481 | −0.542 | −0.001886 | –
CCCCOC(C)=O [123-86-4, butyl acetate] | associated with flavor intensity in univariate models | showed evidence for association with sweetness in univariate models | – | – | – | – | – | –
COC(=O)CC(C)C [556-24-1] | – | – | −0.03139 | 0.732 | 0.88 | 0.972 | 0.009438 | –
CCCCCCCC(C)=O [821-55-6] | – | – | 0.09508 | −0.267 | −0.467 | 1.192 | 0.06252 | –
CC/C=C\CO [1576-95-0] | – | – | 0.1369 | −0.186 | −0.231 | −0.304 | −0.006042 | –
CCC/C=C/C=O [6728-26-3, (2E)-2-hexenal or trans-2-hexenal] | – | – | 0.000185 | 3.349 | 3.314 | −0.816 | 0.0003625 | t [3]: 0.051
c1ccc2scnc2c1 [benzothiazole] | associated with flavor intensity in univariate models | – | – | – | – | – | – | –
CC/C=C\CCO [cis-3-hexen-1-ol] | associated with flavor intensity in univariate models | showed evidence for association with sweetness in univariate models | – | – | – | – | – | association with flavor intensity after accounting for fructose [1]: independently significant after accounting for fructose
O=C(O)CC(O)(CC(=O)O)C(=O)O [citric acid] | associated with flavor intensity in univariate models | – | – | – | – | – | – | association with flavor intensity after accounting for fructose [1]: independently significant after accounting for fructose
C=CCc1ccc(O)c(OC)c1 [eugenol] | – | showed evidence for association with sweetness in univariate models | – | – | – | – | – | –
O=C(CO)[C@@H](O)[C@H](O)[C@H](O)CO [fructose] | associated with flavor intensity in univariate models | showed evidence for association with sweetness in univariate models | – | – | – | – | – | –
COc1ccccc1O [guaiacol] | – | showed evidence for association with sweetness in univariate models | – | – | – | – | – | –
CCCCCCC=O [heptaldehyde] | – | showed evidence for association with sweetness in univariate models | – | – | – | – | – | –
CSCCC=O [methional] | associated with flavor intensity in univariate models | showed evidence for association with sweetness in univariate models | – | – | – | – | – | –
CCCCCCCCC=O [nonyl aldehyde] | – | – | – | – | – | – | – | t [3]: 1.148
O=CCc1ccccc1 [phenylacetaldehyde] | associated with flavor intensity in univariate models | showed evidence for association with sweetness in univariate models | – | – | – | – | – | association with tomato flavor intensity [1]: not associated with tomato flavor intensity
CCC(C)OC(C)=O (stereo not shown) [sec-butyl acetate] | – | – | – | – | – | – | – | association with flavor intensity after accounting for fructose ([1]; listed as 2-butylacetate): independently significant after accounting for fructose
CCCCC/C=C/C=C/C=O [trans,trans-2,4-decadienal] | associated with flavor intensity in univariate models | – | – | – | – | – | – | association with flavor intensity after accounting for fructose [1]: independently significant after accounting for fructose
C/C=C/C(=O)C1=C(C)C=CCC1(C)C [β-damascenone] | – | – | – | – | – | – | – | association with tomato flavor intensity [1]: not associated with tomato flavor intensity
